The source of these data is patent US6890513B2, “Metal-carborane complexes for radioimaging and radiotherapy and methods for their preparation” (McMaster University, priority 2001, dated 2005).

This series in a line: cysteine challenge experiment (stability of Re and Tc carborane complexes). Format: physicochemical. The conditions noted are these: thousand fold excess of cysteine, 1:1 (v/v) phosphate buffer (pH=7.4)-ethanol, 37° C., over 24 hours. The procedure:
The stability of the Re and Tc carborane complexes were evaluated using a cysteine challenge experiment.^21 Compound 1, for example, was incubated with a thousand fold excess of cysteine in a 1:1 (v/v) phosphate buffer (pH=7.4)-ethanol mixture at 37° C. over 24 hours.

Turning to “[NEt4][Re(CO)3(η^5-7,8-C2B9H11)] [Compound 1]”, the “stability (decomposition) in cysteine challenge by HPLC, FTIR and electrospray mass spectrometry” value was “no signs of decomposition”.
